Measurements as given in ChEMBL document CHEMBL2157896, “Engineering pH-gated transitions for selective and efficient double-strand DNA photocleavage in hypoxic tumors” (J Med Chem, 2011).
Calls of active or inactive are those of the source. The calls are words filed in the database; no cut-off is given here.

Experiments:
[1] = test system: Nucleic Acid; experiment: Induction of photochemical DNA cleavage in Escherichia coli pBR322 assessed as form 3 level at 15 uM in pH 8.0 phosphate buffer measured after 8 mins of UV irradiation; format: nucleic-acid assay
[2] = test system: Nucleic Acid; experiment: Induction of photochemical DNA cleavage in Escherichia coli pBR322 assessed as form 3 level at 15 uM in pH 7.0 phosphate buffer measured after 2 mins of UV irradiation; format: nucleic-acid assay
[3] = test system: Nucleic Acid; experiment: Induction of DNA cleavage in Escherichia coli pBR322 at 10 uM in pH 6.0 phosphate buffer measured after of UV irradiation; format: nucleic-acid assay
[4] = test system: Nucleic Acid; experiment: Induction of photochemical DNA cleavage in Escherichia coli pBR322 assessed as form I level at 15 uM in pH 7.0 phosphate buffer measured after 4 mins of UV irradiation; format: nucleic-acid assay
[5] = test system: Nucleic Acid; experiment: Induction of photochemical DNA cleavage in Escherichia coli pBR322 assessed as form 3 level at 15 uM in pH 7.0 phosphate buffer measured after 10 mins of UV irradiation; format: nucleic-acid assay
[6] = test system: Nucleic Acid; experiment: Induction of photochemical DNA cleavage in Escherichia coli pBR322 assessed as form 3 level at 15 uM in pH 8.0 phosphate buffer measured after 4 mins of UV irradiation; format: nucleic-acid assay
[7] = test system: Nucleic Acid; experiment: Induction of photochemical DNA cleavage in Escherichia coli pBR322 assessed as form I level at 15 uM in pH 6.0 phosphate buffer measured after 0.5 mins of UV irradiation; format: nucleic-acid assay
[8] = test system: Nucleic Acid; experiment: Induction of photochemical DNA cleavage in Escherichia coli pBR322 assessed as disappearance of supercoiled DNA at 15 uM in pH 8.0 phosphate buffer after 10 mins of UV irradiation; format: nucleic-acid assay
[9] = test system: Nucleic Acid; experiment: Induction of photochemical DNA cleavage in Escherichia coli pBR322 assessed as form 2 level at 15 uM in pH 6.0 phosphate buffer measured after 2 mins of UV irradiation; format: nucleic-acid assay
[10] = test system: Nucleic Acid; experiment: Induction of photochemical DNA cleavage in Escherichia coli pBR322 assessed as form I level at 15 uM in pH 6.0 phosphate buffer measured after 2 mins of UV irradiation; format: nucleic-acid assay
[11] = test system: Nucleic Acid; experiment: Induction of photochemical DNA cleavage in Escherichia coli pBR322 assessed as form 3 level at 15 uM in pH 8.0 phosphate buffer measured after 0.5 mins of UV irradiation; format: nucleic-acid assay
[12] = test system: Nucleic Acid; experiment: Induction of photochemical DNA cleavage in Escherichia coli pBR322 assessed as form 3 level at 15 uM in pH 6.0 phosphate buffer measured after 0.5 mins of UV irradiation; format: nucleic-acid assay
[13] = test system: Nucleic Acid; experiment: Induction of photochemical DNA cleavage in Escherichia coli pBR322 assessed as form 3 level at 15 uM in pH 6.0 phosphate buffer measured after 8 mins of UV irradiation; format: nucleic-acid assay
[14] = test system: Nucleic Acid; experiment: Induction of photochemical DNA cleavage in Escherichia coli pBR322 assessed as supercoiled DNA level at 15 uM in pH 6.0 phosphate buffer measured after 2 mins of UV irradiation; format: nucleic-acid assay
[15] = test system: Nucleic Acid; experiment: Induction of photochemical DNA cleavage in Escherichia coli pBR322 assessed as form 2 level at 15 uM in pH 6.0 phosphate buffer measured after 6 mins of UV irradiation; format: nucleic-acid assay
[16] = test system: Nucleic Acid; experiment: Induction of photochemical DNA cleavage in Escherichia coli pBR322 assessed as form I level at 15 uM in pH 6.0 phosphate buffer measured after 10 mins of UV irradiation; format: nucleic-acid assay
[17] = test system: A-375; experiment: Phototoxicity in human A375 cells incubated for 72 hrs exposed to UV light for 10 mins by MTT assay; format: functional; details: A-375, light or radiation study
[18] = test system: Nucleic Acid; experiment: Induction of DNA damage in human […] cells at 30 uM incubated for 3 hrs using cells exposed to UV irradiation for 4 to 24 hrs by single cell gel electrophoresis; format: cell-based; details: TDE = time-dependent effect
[19] = test system: Nucleic Acid; experiment: Induction of DNA cleavage in Escherichia coli pBR322 at 5 uM in pH 6.0 phosphate buffer measured after of UV irradiation; format: nucleic-acid assay
[20] = test system: A-375; experiment: Toxicity in human A375 cells at <10 uM under dark condition incubated for 72 hrs by MTT assay; format: cell-based; details: a-375, 72 h
[21] = test system: Nucleic Acid; experiment: Induction of photochemical DNA cleavage in Escherichia coli pBR322 assessed as form I level at 15 uM in pH 6.0 phosphate buffer measured after 4 mins of UV irradiation; format: nucleic-acid assay
[22] = test system: Nucleic Acid; experiment: Induction of photochemical DNA cleavage in Escherichia coli pBR322 assessed as form 2 level at 15 uM in pH 7.0 phosphate buffer measured after 4 mins of UV irradiation; format: nucleic-acid assay
[23] = test system: Nucleic Acid; experiment: Induction of photochemical DNA cleavage in Escherichia coli pBR322 assessed as form I level at 15 uM in pH 7.0 phosphate buffer measured after 10 mins of UV irradiation; format: nucleic-acid assay
[24] = test system: Nucleic Acid; experiment: Induction of photochemical DNA cleavage in Escherichia coli pBR322 assessed as form I level at 15 uM in pH 7.0 phosphate buffer measured after 2 mins of UV irradiation; format: nucleic-acid assay
[25] = test system: Nucleic Acid; experiment: Induction of photochemical DNA cleavage in Escherichia coli pBR322 assessed as form I level at 15 uM in pH 7.0 phosphate buffer measured after 6 mins of UV irradiation; format: nucleic-acid assay
[26] = test system: Nucleic Acid; experiment: Induction of photochemical DNA cleavage in Escherichia coli pBR322 assessed as form 2 level at 15 uM in pH 7.0 phosphate buffer measured after 0.5 mins of UV irradiation; format: nucleic-acid assay
[27] = test system: Nucleic Acid; experiment: Induction of photochemical DNA cleavage in Escherichia coli pBR322 assessed as form 2 level at 15 uM in pH 7.0 phosphate buffer measured after 8 mins of UV irradiation; format: nucleic-acid assay
[28] = test system: Nucleic Acid; experiment: Induction of photochemical DNA cleavage in Escherichia coli pBR322 assessed as form 3 level at 15 uM in pH 6.0 phosphate buffer measured after 2 mins of UV irradiation; format: nucleic-acid assay
[29] = test system: Nucleic Acid; experiment: Induction of DNA damage in human […] cells at 30 uM incubated for 3 hrs using cells exposed to UV irradiation for 20 mins by single cell gel electrophoresis; format: cell-based
[30] = test system: Nucleic Acid; experiment: Induction of photochemical DNA cleavage in Escherichia coli pBR322 assessed as form 2 level at 15 uM in pH 7.0 phosphate buffer measured after 6 mins of UV irradiation; format: nucleic-acid assay
[31] = test system: Nucleic Acid; experiment: Induction of photochemical DNA cleavage in Escherichia coli pBR322 assessed as form 3 level at 15 uM in pH 7.0 phosphate buffer measured after 6 mins of UV irradiation; format: nucleic-acid assay
[32] = test system: Nucleic Acid; experiment: Induction of photochemical DNA cleavage in Escherichia coli pBR322 assessed as form 3 level at 15 uM in pH 6.0 phosphate buffer measured after 6 mins of UV irradiation; format: nucleic-acid assay
[33] = test system: Nucleic Acid; experiment: Induction of photochemical DNA cleavage in Escherichia coli pBR322 assessed as form 3 level at 15 uM in pH 7.0 phosphate buffer measured after 1 min of UV irradiation; format: nucleic-acid assay
[34] = test system: Nucleic Acid; experiment: Induction of photochemical DNA cleavage in Escherichia coli pBR322 assessed as form 3 level at 15 uM in pH 8.0 phosphate buffer measured after 10 mins of UV irradiation; format: nucleic-acid assay
[35] = test system: Nucleic Acid; experiment: Induction of DNA cleavage in Escherichia coli pBR322 at 15 uM in pH 6.0 phosphate buffer measured after of UV irradiation; format: nucleic-acid assay

In the case of `NCCCC[C@H](N)C(=O)NCCCC[C@H](N)C(=O)Nc1ccc(C#Cc2c(F)c(F)nc(F)c2F)cc1.O=C(O)C(F)(F)F`, the Activity [1] is reported as 12.1%, the Activity [2] is reported as 12.7% and the Activity [3] is reported as 75%. The Activity [4] was 22.6%, the Activity [5] was 40.5% and the Activity [6] was 0%. For the same molecule, the Activity [7] was 26.5%, the Activity [8] was “Active” and the Activity [9] was 54.2%. For the same molecule, the Activity [10] was 17.3%, the Activity [11] was 0% and the Activity [12] was 13.5%. For the same molecule, the Activity [13] was 65%, the Activity [14] was less than 17% and the Activity [15] was 48.1%. For the same molecule, the Activity [16] was 0%, the CC50 [17] was 270 nM and the Activity [18] was “tde”. The Activity [19] was 50%, the Activity [20] was “Non-toxic” and the Activity [21] was 0%. For the same molecule, the Activity [22] was 52.4%, the Activity [23] was 11.7% and the Activity [24] was 45.8%. For the same molecule, the Activity [25] was 24.7%, the Activity [26] was 35.4% and the Activity [27] was 51%. For the same molecule, the Activity [28] was 28.4%, the Activity [29] was “Active” and the Activity [30] was 47.2%. It also gave an Activity [31] of 28.1%, an Activity [32] of 51.9% and an Activity [33] of 0%. It also gave an Activity [34] of 21.3% and an Activity [35] of 159%.
